In ChEMBL document CHEMBL3098111, “Discovery of 2,5-diarylnicotinamides as selective orexin-2 receptor antagonists (2-SORAs)” (Bioorg Med Chem Lett, 2013):

Tests used:
[1] = target: D(2) dopamine receptor (Homo sapiens) (UniProt P14416); assay: Inhibition of human dopamine D2S receptor at 10 uM relative to control
[2] = target: Gastrin/cholecystokinin type B receptor (Homo sapiens) (UniProt P32239); assay: Inhibition of human CCKB receptor at 10 uM relative to control
[3] = target: Cannabinoid receptor 2 (Homo sapiens) (UniProt P34972); assay: Inhibition of human CB2 receptor at 10 uM relative to control
Rattus norvegicus [4] = species on record: Rattus norvegicus; assay: Inhibition of rat N-type calcium channel at 10 uM relative to control
[5] = target: B2 bradykinin receptor (Homo sapiens) (UniProt P30411); assay: Inhibition of human bradykinin B2 receptor at 10 uM relative to control
[6] = target: Adrenergic receptor alpha-2 (Rattus norvegicus) (UniProt P22086+P19328+P22909); assay: Inhibition of rat alpha2 adrenergic receptor at 10 uM relative to control
[7] = target: Alpha-1D adrenergic receptor (Homo sapiens) (UniProt P25100); assay: Inhibition of human alpha1D adrenergic receptor at 10 uM relative to control
[8] = target: Adenosine receptor A3 (Homo sapiens) (UniProt P0DMS8); assay: Inhibition of human adenosine A3 receptor at 10 uM relative to control
[9] = target: Adenosine receptor A2a (Homo sapiens) (UniProt P29274); assay: Inhibition of human adenosine A2A receptor at 10 uM relative to control
[10] = target: Receptor-type tyrosine-protein phosphatase C (Homo sapiens) (UniProt P08575); assay: Inhibition of human CD45 at 10 uM relative to control
[11] = target: Tyrosine-protein phosphatase non-receptor type 2 (Homo sapiens) (UniProt P17706); assay: Inhibition of human TCPTP at 10 uM relative to control
Bos taurus = species on record: Bos taurus; assay: Inhibition of bovine PDE6 at 100 uM relative to control
[12] = target: Phosphodiesterase 4 (Homo sapiens) (UniProt P27815+Q08499+Q07343+Q08493); assay: Inhibition of human PDE4 at 100 uM relative to control; format: protein assay
[13] = target: Phosphodiesterase 3 (Homo sapiens) (UniProt Q14432+Q13370); assay: Inhibition of human PDE3 at 100 uM relative to control; format: protein assay
[14] = target: Endothelin-converting enzyme 1 (Homo sapiens) (UniProt P42892); assay: Inhibition of human ECE-1 at 10 uM relative to control
Caspase-3 (Homo sapiens) = Caspase-3 (Homo sapiens) (UniProt P42574); assay: Inhibition of human caspase 3 at 10 uM relative to control
[15] = target: Nitric oxide synthase, inducible (Mus musculus) (UniProt P29477); assay: Inhibition of mouse iNOS at 10 uM relative to control
[16] = target: 5-hydroxytryptamine receptor 1B (Rattus norvegicus) (UniProt P28564); assay: Inhibition of rat 5-HT1B receptor at 10 uM relative to control
[17] = target: T1, 5-hydroxytryptamine receptor 1A (Homo sapiens) (UniProt P08908); assay: Inhibition of human 5-HT1A receptor at 10 uM relative to control
T1 sequence (whole entry): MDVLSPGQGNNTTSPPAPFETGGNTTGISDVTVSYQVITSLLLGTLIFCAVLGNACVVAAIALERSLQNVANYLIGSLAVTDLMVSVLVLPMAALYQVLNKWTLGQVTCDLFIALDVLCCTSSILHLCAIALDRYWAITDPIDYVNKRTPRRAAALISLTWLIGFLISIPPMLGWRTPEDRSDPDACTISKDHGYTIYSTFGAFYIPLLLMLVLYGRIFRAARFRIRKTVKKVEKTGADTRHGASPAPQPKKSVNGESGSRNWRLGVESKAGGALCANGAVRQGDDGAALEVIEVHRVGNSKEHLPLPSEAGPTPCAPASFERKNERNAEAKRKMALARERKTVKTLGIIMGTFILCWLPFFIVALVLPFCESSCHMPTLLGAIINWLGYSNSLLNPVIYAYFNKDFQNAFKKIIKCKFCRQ

Cavia porcellus [18] = species on record: Cavia porcellus; assay: Inhibition of guinea pig adenosine transporter at 10 uM relative to control
Oryctolagus cuniculus = species on record: Oryctolagus cuniculus; assay: Inhibition of rabbit monoamine transporter at 10 nM relative to control
Cavia porcellus [19] = species on record: Cavia porcellus; assay: Inhibition of guinea pig adenosine transporter at 0.1 uM relative to control
[20] = target: Somatostatin receptor type 3 (Homo sapiens) (UniProt P32745); assay: Inhibition of human SST3 receptor at 10 uM relative to control
[21] = target: Somatostatin receptor type 1 (Homo sapiens) (UniProt P30872); assay: Inhibition of human SST1 receptor at 10 uM relative to control
[22] = target: 5-hydroxytryptamine receptor 2B (Homo sapiens, UniProt P41595); assay: Inhibition of human 5-HT2B receptor at 10 uM relative to control
[23] = target: 5-hydroxytryptamine receptor 1B (Rattus norvegicus) (UniProt P28564); assay: Inhibition of rat 5-HT1B receptor at 0.1 uM relative to control
[24] = target: T1, 5-hydroxytryptamine receptor 1A (Homo sapiens); assay: Inhibition of human 5-HT1A receptor at 10 nM relative to control
Rattus norvegicus [25] = species on record: Rattus norvegicus; assay: Inhibition of rat 5-HT1 receptor at 10 uM relative to control
[26] = target: Thromboxane A2 receptor (Homo sapiens) (UniProt P21731); assay: Inhibition of human thromboxane A2 receptor at 10 uM relative to control
[27] = target: Prostaglandin E2 receptor EP1 subtype (Homo sapiens) (UniProt P34995); assay: Inhibition of human prostanoid EP1 receptor at 10 uM relative to control
[28] = target: Platelet-activating factor receptor (Homo sapiens) (UniProt P25105); assay: Inhibition of human PAF receptor at 10 uM relative to control
[29] = target: Kappa-type opioid receptor (Homo sapiens) (UniProt P41145); assay: Inhibition of human kappa opioid receptor at 10 uM relative to control
[30] = target: Neurotensin receptor type 1 (Homo sapiens) (UniProt P30989); assay: Inhibition of human NT1 receptor at 10 uM relative to control
[31] = target: Neuropeptide Y receptor type 1 (Homo sapiens) (UniProt P25929); assay: Inhibition of human neuropeptide YY1 receptor at 10 uM relative to control
[32] = target: Muscarinic acetylcholine receptor M5 (Homo sapiens) (UniProt P08912); assay: Inhibition of human muscarinic M5 receptor at 10 uM relative to control
Gallus gallus = species on record: Gallus gallus; assay: Inhibition of chicken MT receptor at 10 uM relative to control
[33] = target: Melanocortin receptor 3 (Homo sapiens) (UniProt P41968); assay: Inhibition of human MC3 receptor at 10 uM relative to control
[34] = target: Glutamate NMDA receptor (Rattus norvegicus) (UniProt P35439+Q00959+Q00960+Q00961+Q62645+Q8VHN2+Q9R1M7); assay: Inhibition of rat NMDA receptor phencyclidine binding site at 10 uM relative to control; format: protein-complex assay
[35] = target: GABA-A receptor; alpha-5/beta-3/gamma-2 (Homo sapiens) (UniProt P18507+P28472+P31644); assay: Inhibition of human GABA alpha5beta3gamma2 receptor at 10 uM relative to control; format: protein-complex assay

Chain of 5-hydroxytryptamine receptor 1B (Rattus norvegicus) (P28564 whole entry): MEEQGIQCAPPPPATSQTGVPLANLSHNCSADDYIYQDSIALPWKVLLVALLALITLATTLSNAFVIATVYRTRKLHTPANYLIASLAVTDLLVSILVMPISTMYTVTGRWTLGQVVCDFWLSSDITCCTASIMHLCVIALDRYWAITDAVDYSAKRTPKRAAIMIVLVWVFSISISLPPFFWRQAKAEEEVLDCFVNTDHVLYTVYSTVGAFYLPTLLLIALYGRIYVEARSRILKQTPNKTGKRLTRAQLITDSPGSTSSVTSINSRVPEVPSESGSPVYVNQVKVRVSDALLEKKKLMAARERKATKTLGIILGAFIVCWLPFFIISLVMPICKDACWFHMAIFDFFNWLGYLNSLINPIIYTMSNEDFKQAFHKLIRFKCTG
Chain of Neuropeptide Y receptor type 1 (Homo sapiens) (P25929 whole entry): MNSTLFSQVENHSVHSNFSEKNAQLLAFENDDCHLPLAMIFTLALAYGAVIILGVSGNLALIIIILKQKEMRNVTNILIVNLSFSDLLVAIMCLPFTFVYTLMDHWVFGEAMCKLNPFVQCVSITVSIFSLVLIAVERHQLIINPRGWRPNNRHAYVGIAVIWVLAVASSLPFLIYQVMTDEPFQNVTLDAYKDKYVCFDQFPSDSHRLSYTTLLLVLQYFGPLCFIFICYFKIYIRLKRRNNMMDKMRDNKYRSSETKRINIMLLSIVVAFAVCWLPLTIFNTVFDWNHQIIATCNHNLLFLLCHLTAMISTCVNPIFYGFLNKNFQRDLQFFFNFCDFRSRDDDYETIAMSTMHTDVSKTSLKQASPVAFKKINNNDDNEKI
Chain of Nitric oxide synthase, inducible (Mus musculus) (P29477 whole entry): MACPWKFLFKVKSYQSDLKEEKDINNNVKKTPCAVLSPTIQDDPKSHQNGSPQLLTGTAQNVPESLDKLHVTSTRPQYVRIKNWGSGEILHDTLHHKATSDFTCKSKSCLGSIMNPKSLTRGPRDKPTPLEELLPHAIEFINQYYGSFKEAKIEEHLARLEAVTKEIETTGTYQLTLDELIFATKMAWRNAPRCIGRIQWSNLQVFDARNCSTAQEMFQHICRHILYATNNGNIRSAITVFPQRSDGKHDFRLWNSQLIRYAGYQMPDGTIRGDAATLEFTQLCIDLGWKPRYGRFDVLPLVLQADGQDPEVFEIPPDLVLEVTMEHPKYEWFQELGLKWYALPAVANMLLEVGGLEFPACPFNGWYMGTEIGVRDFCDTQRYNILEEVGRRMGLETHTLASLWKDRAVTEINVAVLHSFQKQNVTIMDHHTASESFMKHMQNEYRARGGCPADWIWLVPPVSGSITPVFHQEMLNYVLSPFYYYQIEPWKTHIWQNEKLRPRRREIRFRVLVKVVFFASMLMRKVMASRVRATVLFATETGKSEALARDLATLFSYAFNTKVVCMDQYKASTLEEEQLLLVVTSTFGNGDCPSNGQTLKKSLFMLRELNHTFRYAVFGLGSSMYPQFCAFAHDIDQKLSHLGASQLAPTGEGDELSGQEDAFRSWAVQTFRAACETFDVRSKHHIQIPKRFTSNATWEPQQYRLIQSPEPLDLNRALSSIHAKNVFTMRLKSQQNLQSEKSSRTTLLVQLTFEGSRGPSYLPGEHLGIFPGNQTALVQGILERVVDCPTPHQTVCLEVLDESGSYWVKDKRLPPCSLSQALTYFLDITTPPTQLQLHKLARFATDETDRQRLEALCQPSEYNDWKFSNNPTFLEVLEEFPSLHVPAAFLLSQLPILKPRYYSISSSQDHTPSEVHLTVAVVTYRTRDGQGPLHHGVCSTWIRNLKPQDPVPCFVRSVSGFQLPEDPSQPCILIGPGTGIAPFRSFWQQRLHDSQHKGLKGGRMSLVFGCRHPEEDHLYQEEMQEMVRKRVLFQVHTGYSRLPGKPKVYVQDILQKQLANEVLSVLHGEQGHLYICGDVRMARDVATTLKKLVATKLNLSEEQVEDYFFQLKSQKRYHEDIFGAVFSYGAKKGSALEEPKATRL
Chain of Alpha-1D adrenergic receptor (Homo sapiens) (P25100 whole entry): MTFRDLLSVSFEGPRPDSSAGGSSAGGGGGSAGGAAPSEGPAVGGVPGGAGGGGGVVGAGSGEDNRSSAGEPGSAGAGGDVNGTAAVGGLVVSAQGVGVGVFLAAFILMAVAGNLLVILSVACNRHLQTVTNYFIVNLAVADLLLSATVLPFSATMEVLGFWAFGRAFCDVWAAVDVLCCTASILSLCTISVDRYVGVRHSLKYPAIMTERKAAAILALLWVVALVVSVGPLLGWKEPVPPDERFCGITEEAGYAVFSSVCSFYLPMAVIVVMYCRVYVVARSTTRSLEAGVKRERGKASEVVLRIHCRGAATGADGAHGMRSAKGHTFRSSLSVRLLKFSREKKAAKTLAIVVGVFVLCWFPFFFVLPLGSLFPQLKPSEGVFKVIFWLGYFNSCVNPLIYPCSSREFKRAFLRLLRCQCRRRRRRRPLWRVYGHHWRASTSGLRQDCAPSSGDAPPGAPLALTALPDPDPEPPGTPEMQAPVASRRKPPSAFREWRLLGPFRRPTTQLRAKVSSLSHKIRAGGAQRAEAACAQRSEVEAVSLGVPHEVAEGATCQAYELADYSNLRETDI
Chain of Platelet-activating factor receptor (Homo sapiens) (P25105 whole entry): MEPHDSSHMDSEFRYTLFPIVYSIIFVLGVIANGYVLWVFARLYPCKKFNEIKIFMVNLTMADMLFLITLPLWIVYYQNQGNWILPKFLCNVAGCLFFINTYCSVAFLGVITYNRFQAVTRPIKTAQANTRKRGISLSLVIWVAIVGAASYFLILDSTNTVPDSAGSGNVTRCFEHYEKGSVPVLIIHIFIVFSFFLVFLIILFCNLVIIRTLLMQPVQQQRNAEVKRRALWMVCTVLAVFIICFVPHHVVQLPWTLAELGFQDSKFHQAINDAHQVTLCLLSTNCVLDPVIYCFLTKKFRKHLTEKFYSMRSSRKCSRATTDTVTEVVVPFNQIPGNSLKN
Chain of D(2) dopamine receptor (Homo sapiens) (P14416 whole entry): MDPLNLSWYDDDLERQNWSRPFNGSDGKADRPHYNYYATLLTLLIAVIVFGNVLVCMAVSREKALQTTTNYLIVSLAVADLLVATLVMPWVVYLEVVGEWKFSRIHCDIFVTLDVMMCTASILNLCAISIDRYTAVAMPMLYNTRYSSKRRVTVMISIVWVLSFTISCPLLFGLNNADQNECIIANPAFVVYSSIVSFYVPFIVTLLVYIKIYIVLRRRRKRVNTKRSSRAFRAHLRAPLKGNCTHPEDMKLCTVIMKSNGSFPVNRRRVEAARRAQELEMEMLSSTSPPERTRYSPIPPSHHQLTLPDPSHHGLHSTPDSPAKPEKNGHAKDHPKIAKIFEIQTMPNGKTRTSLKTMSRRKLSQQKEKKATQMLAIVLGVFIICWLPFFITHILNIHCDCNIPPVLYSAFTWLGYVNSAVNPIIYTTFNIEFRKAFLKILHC
Chain of 5-hydroxytryptamine receptor 2B (P41595 whole entry): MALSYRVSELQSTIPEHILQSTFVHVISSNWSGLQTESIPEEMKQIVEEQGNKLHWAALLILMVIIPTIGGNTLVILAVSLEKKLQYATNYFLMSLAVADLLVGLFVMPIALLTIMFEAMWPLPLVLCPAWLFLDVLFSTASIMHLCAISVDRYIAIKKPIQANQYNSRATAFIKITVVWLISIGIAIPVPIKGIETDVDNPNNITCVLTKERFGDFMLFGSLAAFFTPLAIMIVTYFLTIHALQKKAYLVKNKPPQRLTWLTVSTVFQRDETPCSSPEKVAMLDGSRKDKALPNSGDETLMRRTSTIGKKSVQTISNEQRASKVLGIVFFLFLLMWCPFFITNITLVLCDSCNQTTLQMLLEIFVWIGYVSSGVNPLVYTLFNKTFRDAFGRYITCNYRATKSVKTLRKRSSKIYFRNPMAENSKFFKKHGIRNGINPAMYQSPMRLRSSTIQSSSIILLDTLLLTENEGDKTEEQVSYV
Chain of Kappa-type opioid receptor (Homo sapiens) (P41145 whole entry): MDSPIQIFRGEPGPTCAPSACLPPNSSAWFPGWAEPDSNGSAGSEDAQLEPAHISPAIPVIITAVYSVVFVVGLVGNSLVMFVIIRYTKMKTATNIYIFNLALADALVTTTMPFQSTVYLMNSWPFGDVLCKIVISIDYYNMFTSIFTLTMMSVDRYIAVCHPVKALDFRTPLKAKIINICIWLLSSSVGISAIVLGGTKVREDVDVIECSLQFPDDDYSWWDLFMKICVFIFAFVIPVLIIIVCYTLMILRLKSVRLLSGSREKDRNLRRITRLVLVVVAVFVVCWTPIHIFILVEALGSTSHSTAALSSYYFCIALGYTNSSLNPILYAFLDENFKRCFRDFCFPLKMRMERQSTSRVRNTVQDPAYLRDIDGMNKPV
Chain of Adenosine receptor A3 (Homo sapiens) (P0DMS8 whole entry): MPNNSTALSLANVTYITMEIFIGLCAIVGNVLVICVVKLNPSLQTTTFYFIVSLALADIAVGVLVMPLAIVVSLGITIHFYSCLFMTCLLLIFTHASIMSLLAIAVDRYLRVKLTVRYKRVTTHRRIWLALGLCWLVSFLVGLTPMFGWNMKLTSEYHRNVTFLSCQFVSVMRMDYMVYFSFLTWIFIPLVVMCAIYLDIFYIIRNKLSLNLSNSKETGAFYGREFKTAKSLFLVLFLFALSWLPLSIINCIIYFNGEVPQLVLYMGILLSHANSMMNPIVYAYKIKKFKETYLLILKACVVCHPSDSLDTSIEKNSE
Chain of Melanocortin receptor 3 (Homo sapiens) (P41968 whole entry): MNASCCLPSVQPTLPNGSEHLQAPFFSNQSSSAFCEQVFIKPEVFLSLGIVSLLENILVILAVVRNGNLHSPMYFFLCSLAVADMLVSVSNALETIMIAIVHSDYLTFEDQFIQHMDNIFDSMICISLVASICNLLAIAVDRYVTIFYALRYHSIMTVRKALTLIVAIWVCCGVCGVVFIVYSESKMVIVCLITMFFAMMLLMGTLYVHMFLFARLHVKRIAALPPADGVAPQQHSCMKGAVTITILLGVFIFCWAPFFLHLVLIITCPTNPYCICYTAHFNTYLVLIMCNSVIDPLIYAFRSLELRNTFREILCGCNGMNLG

inhibition [1]: -2% | inhibition [2]: -4% | inhibition [3]: 2% | inhibition (Rattus norvegicus [4]): 2% | inhibition [5]: -10% | inhibition [6]: 37% | inhibition [7]: 26% | inhibition [8]: 33% | inhibition [9]: 8% | inhibition [10]: -1% | inhibition [11]: 4% | inhibition (Bos taurus): 16% | inhibition [12]: 5% | inhibition [13]: 0% | inhibition [14]: -10% | inhibition (Caspase-3 (Homo sapiens)): -1% | inhibition [15]: 2% | inhibition [16]: 73% | inhibition [17]: 69% | inhibition (Cavia porcellus [18]): 69% | inhibition (Oryctolagus cuniculus): 2% | inhibition (Cavia porcellus [19]): 15% | inhibition [20]: 30% | inhibition [21]: 14% | inhibition [22]: 84% | inhibition [23]: 9% | inhibition [24]: 2% | inhibition (Rattus norvegicus [25]): 36% | inhibition [26]: 17% | inhibition [27]: 10% | inhibition [28]: 31% | inhibition [29]: 9% | inhibition [30]: 21% | inhibition [31]: 23% | inhibition [32]: 1% | inhibition (Gallus gallus): 22% | inhibition [33]: 2% | inhibition [34]: 5% | inhibition [35]: 18%
Compound: COc1ccc(CNC(=O)c2cc(-c3cc(Cl)cc(Cl)c3)cnc2-c2cccnc2)cc1OC
